From patent publication US9403827B2, “Substituted purinone compounds” (NOVARTIS AG, priority 2013, dated 2016)

Legend:
Type in all cases: binding
[1] = molecular target: human MDM4 protein (amino acids 2-185) (Homo sapiens (Human), UniProt O15151); test: TR-FRET p53-MDM4 Assay 1; details: 2.5 nM MDM4-biotinylated, 10 nM Cy5-p53 peptide
Protocol: (§1) Time Resolved Fluorescence Energy Transfer (TR-FRET) Assay
(§2) The inhibition of p53-MDM2 and p53-MDM4 interactions is measured by time resolved fluorescence energy transfer (TR-FRET). Fluorescence energy transfer (or Foerster resonance energy transfer) describes an energy transfer between donor and acceptor fluorescent molecules. For this assay, human MDM2 protein (amino acids 2-188) and human MDM4 protein (amino acids 2-185), tagged with a C-terminal biotin moiety, are used in combination with a Europium labeled streptavidin (Perkin Elmer, Inc., Waltham, Mass., USA) serving as the donor fluorophore. The p53 derived, Cy5 labeled peptide Cy5-TFSDLWKLL (p53 aa18-26) is the energy acceptor. Upon excitation of the donor molecule at 340 nm, binding interaction between MDM2 or MDM4 and the p53 peptide induces energy transfer and enhanced response at the acceptor emission wavelength at 665 nm.
(§3) Disruption of the formation of the p53-MDM2 or p53-MDM4 complex due to an inhibitor molecule binding to the p53 binding site of MDM2 or MDM4 results in increased donor emission at 620 nm. The ratiometric FRET assay readout is calculated from the raw data of the two distinct fluorescence signals measured in time resolved mode (fluorescence 665 nm/fluorescence 620 nm×1000).
(§4) The test is performed in white 384-well plates (Greiner Bio-One, reference 781207) in a total volume of 60 μL by adding 1 μL of compounds tested at different concentrations diluted in 100% DMSO (1.7% final DMSO concentration) in reaction buffer (PBS, 125 mM NaCl, 0.001% Novexin (consists of carbohydrate polymers), designed to increase the solubility and stability of proteins; Expedeon Ltd., Cambridgeshire, United Kingdom), 0.01% Gelatin, 0.01% 0.2%, Pluronic F-127 (block copolymer from ethylenoxide and propyleneoxide), 1 mM DTT). After addition of 1.25 nM MDM2-biotinylated or 2.5 nM MDM4-biotinylated (internal preparations, both MDM2 and MDM4 are biotinylated at the C-terminal of the peptide construct), and 0.625 nM Europium labeled streptavidin (Perkin Elmer), the solution is pre-incubated for 15 minutes at room temperature, then 10 nM Cy5-p53 peptide (internal preparation, the Cy5 dye is directly bound to the N-terminal part of p53 peptide construct) is added before an incubation at room temperature for 15 minutes prior to reading the plate. For measurement of samples, a Victor II microplate reader (Perkin Elmer) is used with the following settings: Excitation 340 nm, Emission Donor 620 nm and Emission Acceptor 665 nm. IC50 values are calculated by curve fitting using XLfit. If not specified, reagents are purchased from Sigma-Aldrich Chemie GmBH, Buchs, Switzerland.
(§5) This assay was used to evaluate compounds displaying inhibition of p53-MDM2 interaction and p53-MDM4 interaction at IC50s of 0.005 to 50 μM (p53-MDM2 Assay 1 and p53-MDM4 Assay 1, respectively). For selected compounds displaying IC50s between […] on MDM2, a slightly modified assay is used with the following adaptations: 0.1 nM MDM2, 0.1 nM Europium labeled streptavidin and Tecan genios Pro is used as a microplate reader for the fluorescence measurements (p53-MDM2 Assay 2).

[2] = molecular target: T1, human MDM2 protein (amino acids 2-188) (Homo sapiens (Human), UniProt Q00987); test: TR-FRET p53-MDM2 Assay 2 (modified: 0.1 nM MDM2); details: 0.1 nM MDM2, 0.1 nM Europium labeled streptavidin, Tecan genios Pro reader
T1 sequence (Q00987 2-188): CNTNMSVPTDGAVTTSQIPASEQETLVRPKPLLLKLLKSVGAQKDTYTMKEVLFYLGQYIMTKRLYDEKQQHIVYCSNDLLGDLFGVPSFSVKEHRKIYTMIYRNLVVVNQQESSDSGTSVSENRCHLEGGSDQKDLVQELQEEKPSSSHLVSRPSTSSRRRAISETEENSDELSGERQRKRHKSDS
Protocol: as §1, §2, §3, §4, §5

[3] = molecular target: T1, human MDM2 protein (amino acids 2-188); test: TR-FRET p53-MDM2 Assay 1; details: 1.25 nM MDM2-biotinylated, 10 nM Cy5-p53 peptide
Protocol: as §1, §2, §3, §4, §5

Chain of human MDM4 protein (amino acids 2-185) (O15151 2-185): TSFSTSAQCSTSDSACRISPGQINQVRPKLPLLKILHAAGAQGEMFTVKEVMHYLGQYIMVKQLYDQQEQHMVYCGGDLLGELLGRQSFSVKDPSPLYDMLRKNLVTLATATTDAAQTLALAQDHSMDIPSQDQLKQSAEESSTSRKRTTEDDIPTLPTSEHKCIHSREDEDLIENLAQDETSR

SMILES | IC50 [1] [µM] | IC50 [2] [nM] | IC50 [3] [µM]
COc1ccccc1-c1nc2c(n1C(C)C)C(c1ccc(Cl)cc1)N(c1cccc(Cl)c1F)C(=O)N2 (stereo not drawn) [Example 1, 1-(3-Chloro-2-fluoro-phenyl)-6-(4-chloro-phenyl)-7-isopropyl-8-(2-methoxy-phenyl)-1,3,6,7-tetrahydro-purin-2-one] | 1.51 | 0.882 | 0.002
COc1ccncc1-c1nc2c(n1C(C)C)C(c1ccc(Cl)cc1C)N(c1cc(Cl)ccc1C)C(=O)N2 (stereo not drawn) [Example 4, 6-(4-Chloro-2-methylphenyl)-1-(5-chloro-2-methylphenyl)-7-isopropyl-8-(4-methoxypyridin-3-yl)-6,7-dihydro-1H-purin-2(3H)-one] | 16.7 | – | 0.0031
COc1ccncc1-c1nc2c(n1C(C)C)C(c1ccc(Cl)cc1)N(c1cccc(Cl)c1F)C(=O)N2 (stereo not drawn) [Example 6, 1-(3-Chloro-2-fluorophenyl)-6-(4-chlorophenyl)-7-isopropyl-8-(4-methoxypyridin-3-yl)-6,7-dihydro-1H-purin-2(3H)-one] | 14 | – | 0.0085

Next, values leading:

IC50 [1] [µM] | IC50 [2] [nM] | IC50 [3] [µM] | SMILES
2.13 | 0.779 | 0.0021 | COc1ccccc1-c1nc2c(n1C(C)C)C(c1ccc(Cl)cc1C)N(c1cccc(Cl)c1F)C(=O)N2 (stereo not drawn) [Example 2, 1-(3-Chloro-2-fluoro-phenyl)-6-(4-chloro-2-methyl-phenyl)-7-isopropyl-8-(2-methoxy-phenyl)-1,3,6,7-tetrahydro-purin-2-one]
1.45 | – | 0.0018 | COc1ccccc1-c1nc2c(n1C(C)C)C(c1ccc(Cl)cc1C)N(c1cc(Cl)ccc1C)C(=O)N2 (stereo not drawn) [Example 3, 6-(4-Chloro-2-methylphenyl)-1-(5-chloro-2-methylphenyl)-7-isopropyl-8-(2-methoxyphenyl)-6,7-dihydro-1H-purin-2(3H)-one]
